The target in this test is α4β1 (Homo sapiens, UniProt P05556+P13612). Briefly: α4β1 integrin inhibition, IC50. The format is binding. The conditions noted are these: read-out: α4β1 IC50.

As usually defined, the IC50 is the concentration needed to halve the response being measured.

A value given as a limit tells only on which side of the number the result lay.

α4β1, sequence (P13612 34-1032): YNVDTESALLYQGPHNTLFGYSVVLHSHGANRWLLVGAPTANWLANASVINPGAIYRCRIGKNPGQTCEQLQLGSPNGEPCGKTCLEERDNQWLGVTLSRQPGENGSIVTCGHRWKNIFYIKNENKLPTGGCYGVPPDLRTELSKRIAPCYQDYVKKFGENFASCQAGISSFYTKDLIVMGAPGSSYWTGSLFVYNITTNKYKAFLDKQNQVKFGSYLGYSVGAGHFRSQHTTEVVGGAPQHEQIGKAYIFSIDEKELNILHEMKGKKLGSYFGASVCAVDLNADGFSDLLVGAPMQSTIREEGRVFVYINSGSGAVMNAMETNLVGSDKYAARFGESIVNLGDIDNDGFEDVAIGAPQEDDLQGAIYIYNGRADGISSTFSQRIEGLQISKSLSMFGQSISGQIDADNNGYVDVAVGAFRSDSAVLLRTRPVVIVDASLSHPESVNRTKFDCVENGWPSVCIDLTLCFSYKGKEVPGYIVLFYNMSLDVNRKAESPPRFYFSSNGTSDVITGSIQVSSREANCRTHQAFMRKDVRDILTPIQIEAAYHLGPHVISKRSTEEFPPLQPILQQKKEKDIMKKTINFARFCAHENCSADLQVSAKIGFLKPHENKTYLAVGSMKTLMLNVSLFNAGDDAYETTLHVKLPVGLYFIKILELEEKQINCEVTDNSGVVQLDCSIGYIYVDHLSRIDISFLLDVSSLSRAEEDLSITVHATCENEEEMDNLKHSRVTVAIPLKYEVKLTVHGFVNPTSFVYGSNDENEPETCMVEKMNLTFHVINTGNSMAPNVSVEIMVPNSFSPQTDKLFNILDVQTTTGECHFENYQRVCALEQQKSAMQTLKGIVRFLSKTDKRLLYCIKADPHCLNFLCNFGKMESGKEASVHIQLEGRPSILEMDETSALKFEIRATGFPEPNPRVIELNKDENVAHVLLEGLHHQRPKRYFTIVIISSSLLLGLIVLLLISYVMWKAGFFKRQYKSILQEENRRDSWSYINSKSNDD
α4β1, sequence (P05556 21-798): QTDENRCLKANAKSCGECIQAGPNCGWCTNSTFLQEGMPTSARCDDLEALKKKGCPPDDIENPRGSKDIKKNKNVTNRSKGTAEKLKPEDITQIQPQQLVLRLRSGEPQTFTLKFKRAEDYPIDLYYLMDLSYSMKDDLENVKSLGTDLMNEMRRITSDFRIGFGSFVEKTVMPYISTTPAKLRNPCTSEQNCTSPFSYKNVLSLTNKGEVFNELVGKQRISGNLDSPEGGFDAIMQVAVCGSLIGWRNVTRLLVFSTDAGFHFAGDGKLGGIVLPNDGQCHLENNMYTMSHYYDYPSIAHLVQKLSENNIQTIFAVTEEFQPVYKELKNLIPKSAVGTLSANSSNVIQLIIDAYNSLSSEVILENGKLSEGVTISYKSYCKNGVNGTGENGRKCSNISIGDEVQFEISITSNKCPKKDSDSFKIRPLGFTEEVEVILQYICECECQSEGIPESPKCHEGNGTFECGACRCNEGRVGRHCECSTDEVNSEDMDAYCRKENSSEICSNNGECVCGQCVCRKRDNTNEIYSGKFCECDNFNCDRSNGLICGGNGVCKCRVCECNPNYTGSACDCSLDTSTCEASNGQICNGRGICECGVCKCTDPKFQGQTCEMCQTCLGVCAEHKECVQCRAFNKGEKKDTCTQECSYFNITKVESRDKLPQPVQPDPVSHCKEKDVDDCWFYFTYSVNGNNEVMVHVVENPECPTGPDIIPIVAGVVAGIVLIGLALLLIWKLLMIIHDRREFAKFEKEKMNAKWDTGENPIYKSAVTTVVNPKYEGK

`Cc1ccccc1-c1cccc([C@H](CC(=O)O)NC(=O)Nc2c(O)cc(C)n(C)c2=O)c1` [1-599, sodium (S)-3-(3-(1,6-dimethyl-4-oxido-2-oxo-1,2-dihydropyridin-3-yl)ureido)-3-(2′-methylbiphenyl-3-yl)propanoate]: the IC50 is less than 20 nM.
The figure for `Cn1ccc(O)c(NC(=O)N[C@@H](CC(=O)O)c2cccc(-c3cccc(OC(F)(F)F)c3)c2)c1=O` [1-514, sodium (S)-3-(3-(1-methyl-4-oxido-2-oxo-1,2-dihydropyridin-3-yl)ureido)-3-(3′-(trifluoromethoxy)biphenyl-3-yl)propanoate] is less than 20 nM.
On to `Cc1cn(C)c(=O)c(NC(=O)NC(CC(=O)O)c2ccc(=O)n(-c3ccccc3)c2)c1O` (stereo not shown) [1-463, sodium 3-(3-(1,5-dimethyl-4-oxido-2-oxo-1,2-dihydropyridin-3-yl)ureido)-3-(6-oxo-1-phenyl-1,6-dihydropyridin-3-yl)propanoate], for which the IC50 is less than 200 nM.
The figure for `COc1ccccc1-c1cccc([C@H](CC(=O)O)NC(=O)Nc2c(O)c(C)cn(C)c2=O)c1` [1-456, sodium (S)-3-(3-(1,5-dimethyl-4-oxido-2-oxo-1,2-dihydropyridin-3-yl)ureido)-3-(2′-methoxybiphenyl-3-yl)propanoate] is less than 200 nM; for `Cc1cn(C)c(=O)c(NC(=O)N[C@@H](CC(=O)O)c2cccc(-c3ccccc3)c2C)c1O` [1-500, sodium (S)-3-(3-(1,5-dimethyl-4-oxido-2-oxo-1,2-dihydropyridin-3-yl)ureido)-3-(2-methylbiphenyl-3-yl)propanoate] it is more than 200 nM; for `Cc1cn(C)c(=O)c(NC(=O)N[C@@H](CC(=O)O)c2cccc(-c3cc(F)ccc3F)c2)c1O` [1-447, sodium (S)-3-(2′,5′-difluorobiphenyl-3-yl)-3-(3-(1,5-dimethyl-4-oxido-2-oxo-1,2-di hydropyridin-3-yl)ureido)propanoate] it is less than 20 nM.
Under `Cc1cn(C)c(=O)c(NC(=O)N[C@@H](CC(=O)O)c2cccc(-n3c(C)ccc3C)c2)c1O` [1-483, sodium (S)-3-(3-(2,5-dimethyl-1H-pyrrol-1-yl)phenyl)-3-(3-(1,5-dimethyl-4-oxido-2-oxo-1,2-dihydropyridin-3-yl)ureido)propanoate] stands less than 20 nM.
The figure for `Cn1ccc(O)c(NC(=O)N[C@@H](CC(=O)O)c2cc(F)cc(-c3ccc(F)cc3F)c2)c1=O` [1-633, sodium (S)-3-(3-(1-methyl-4-oxido-2-oxo-1,2-dihydropyridin-3-yl)ureido)-3-(2′,4′,5-trifluorobiphenyl-3-yl)propanoate] is less than 20 nM; for `COc1cc(-c2ccccc2)cc([C@H](CC(=O)O)NC(=O)Nc2c(O)ccn(C)c2=O)c1` [1-558, sodium (S)-3-(5-methoxybiphenyl-3-yl)-3-(3-(1-methyl-4-oxido-2-oxo-1,2-dihydropyridin-3-yl)ureido)propanoate] it is less than 20 nM.
In the case of `COc1ccc(-c2cccc([C@H](CC(=O)O)NC(=O)Nc3c(O)c(C)cn(C)c3=O)c2)cn1` [1-476, sodium (S)-3-(3-(1,5-dimethyl-4-oxido-2-oxo-1,2-dihydropyridin-3-yl)ureido)-3-(3-(6-methoxypyridin-3-yl)phenyl)propanoate], the IC50 is less than 20 nM.
With `COc1cccc(-c2cccc([C@H](CC(=O)O)NC(=O)Nc3c(O)ccn(C)c3=O)c2)n1` [sodium (S)-3-(3-(6-methoxypyridin-2-yl)phenyl)-3-(3-(1-methyl-4-oxido-2-oxo-1,2-dihydropyridin-3-yl)ureido)propanoate], the IC50 is less than 20 nM.
Turning to `COc1cccc(-c2cc([C@H](CC(=O)O)NC(=O)Nc3c(O)ccn(C)c3=O)ccc2OC(F)(F)F)c1` [1-634, sodium (S)-3-(3′-methoxy-6-(trifluoromethoxy)biphenyl-3-yl)-3-(3-(1-methyl-4-oxido-2-oxo-1,2-dihydropyridin-3-yl)ureido)propanoate], the IC50 is less than 20 nM.
The figure for `Cc1cscc1-c1cccc([C@H](CC(=O)O)NC(=O)Nc2c(O)ccn(C)c2=O)c1` [1-540, sodium (S)-3-(3-(1-methyl-4-oxido-2-oxo-1,2-dihydropyridin-3-yl)ureido)-3-(3-(4-methylthiophen-3-yl)phenyl)propanoate] is less than 20 nM; for `Cc1cn(C)c(=O)c(NC(=O)N[C@@H](CC(=O)O)c2ccc(-c3ccccc3)cc2)c1O` [1-643, sodium (S)-3-(biphenyl-4-yl)-3-(3-(1,5-dimethyl-4-oxido-2-oxo-1,2-dihydropyridin-3-yl)ureido)propanoate] it is less than 200 nM.
The figure for `Cn1ccc(O)c(NC(=O)N[C@@H](CC(=O)O)c2cccc(-n3cccn3)c2)c1=O` [1-522, sodium (S)-3-(3-(1H-pyrazol-1-yl)phenyl)-3-(3-(1-methyl-4-oxido-2-oxo-1,2-dihydropyridin-3-yl)ureido)propanoate] is less than 20 nM; for `COc1ccc(-c2c(C)cccc2C)cc1[C@H](CC(=O)O)NC(=O)Nc1c(O)ccn(C)c1=O` [1-602, sodium (S)-3-(4-methoxy-2′,6′-dimethylbiphenyl-3-yl)-3-(3-(1-methyl-4-oxido-2-oxo-1,2-dihydropyridin-3-yl)ureido)propanoate] it is less than 20 nM; for `Cn1ccc(O)c(NC(=O)N[C@@H](CC(=O)O)c2cccc(-c3ccoc3)c2)c1=O` [1-559, sodium (S)-3-(3-(furan-3-yl)phenyl)-3-(3-(1-methyl-4-oxido-2-oxo-1,2-dihydropyridin-3-yl)ureido)propanoate] it is less than 20 nM.
The figure for `CCn1cc(C)c(O)c(NC(=O)NC(CC(=O)O)c2cccc(-n3cccc(-c4ccccc4)c3=O)c2)c1=O` (stereo not shown) [1-439, sodium 3-(3-(1-ethyl-5-methyl-4-oxido-2-oxo-1,2-dihydropyridin-3-yl)ureido)-3-(3-(2-oxo-3-phenylpyridin-1(2H)-yl)phenyl)propanoate] is more than 200 nM; for `Cc1cc(O)c(NC(=O)N[C@@H](CC(=O)O)c2cc(-c3ccc(F)cc3F)cs2)c(=O)n1C` [1-552, sodium (S)-3-(4-(2,4-difluorophenyl)thiophen-2-yl)-3-(3-(1,6-dimethyl-4-oxido-2-oxo-1,2-dihydropyridin-3-yl)ureido)propanoate] it is less than 20 nM.
Take `CCn1ccc2ccc(-c3cccc([C@H](CC(=O)O)NC(=O)Nc4c(O)ccn(C)c4=O)c3)cc21` [1-521, sodium (S)-3-(3-(1-ethyl-1H-indol-6-yl)phenyl)-3-(3-(1-methyl-4-oxido-2-oxo-1,2-dihydropyridin-3-yl)ureido)propanoate]: the IC50 is less than 20 nM.
The figure for `Cn1cc(-c2cccc([C@H](CC(=O)O)NC(=O)Nc3c(O)ccn(C)c3=O)c2)cn1` [1-548, sodium (S)-3-(3-(1-methyl-1H-pyrazol-4-yl)phenyl)-3-(3-(1-methyl-4-oxido-2-oxo-1,2-dihydropyridin-3-yl)ureido)propanoate] is less than 20 nM.
The figure for `Cn1ccc(O)c(NC(=O)N[C@@H](CC(=O)O)c2cccc(-c3ccc(Cl)s3)c2)c1=O` [1-538, sodium (S)-3-(3-(5-chlorothiophen-2-yl)phenyl)-3-(3-(1-methyl-4-oxido-2-oxo-1,2-dihydropyridin-3-yl)ureido)propanoate] is less than 20 nM; for `COc1cccc(-c2cc(OC)cc([C@H](CC(=O)O)NC(=O)Nc3c(O)ccn(C)c3=O)c2)c1` [1-564, sodium (S)-3-(3′,5-dimethoxybiphenyl-3-yl)-3-(3-(1-methyl-4-oxido-2-oxo-1,2-dihydropyridin-3-yl)ureido)propanoate] it is less than 20 nM; for `Cc1ccccc1-c1cc([C@H](CC(=O)O)NC(=O)Nc2c(O)ccn(C)c2=O)ccc1OC(F)(F)F` [1-624, sodium (S)-3-(3-(1-methyl-4-oxido-2-oxo-1,2-dihydropyridin-3-yl)ureido)-3-(2′-methyl-6-(trifluoromethoxy)biphenyl-3-yl)propanoate] it is less than 20 nM.
The figure for `COc1cccc(-c2cc(C)cc([C@H](CC(=O)O)NC(=O)Nc3c(O)cc(C)n(C)c3=O)c2)c1` [1-586, sodium (S)-3-(3-(1,6-dimethyl-4-oxido-2-oxo-1,2-dihydropyridin-3-yl)ureido)-3-(3′-methoxy-5-methylbiphenyl-3-yl)propanoate] is less than 20 nM.
Regarding `Cc1ccccc1-c1cccc([C@H](CC(=O)O)NC(=O)Nc2c(O)c(C)cn(C)c2=O)c1` [1-440, sodium (S)-3-(3-(1,5-dimethyl-4-oxido-2-oxo-1,2-dihydropyridin-3-yl)ureido)-3-(2′-methylbiphenyl-3-yl)propanoate], the IC50 is less than 200 nM.
The figure for `Cc1cn(C)c(=O)c(NC(=O)N[C@@H](CC(=O)O)c2cccc(-c3ccc(F)cc3)c2)c1O` [1-466, sodium (S)-3-(3-(1,5-dimethyl-4-oxido-2-oxo-1,2-dihydropyridin-3-yl)ureido)-3-(4′-fluorobiphenyl-3-yl)propanoate] is less than 20 nM.
The figure for `Cc1cn(C)c(=O)c(NC(=O)NC(CC(=O)O)c2cccc(-c3cccc(Cl)c3)c2)c1O` (stereo not shown) [1-472, sodium 3-(3′-chlorobiphenyl-3-yl)-3-(3-(1,5-dimethyl-4-oxido-2-oxo-1,2-dihydropyridin-3-yl)ureido)propanoate] is less than 200 nM; for `Cc1cn(C)c(=O)c(NC(=O)NC(CC(=O)O)c2cccc(-c3cccc(Cl)c3Cl)c2)c1O` (stereo not shown) [1-485, sodium 3-(2′,3′-dichlorobiphenyl-3-yl)-3-(3-(1,5-dimethyl-4-oxido-2-oxo-1,2-dihydropyridin-3-yl)ureido)propanoate] it is less than 200 nM; for `COc1ccc([C@H](CC(=O)O)NC(=O)Nc2c(O)c(C)cn(C)c2=O)cc1-c1ccccc1` [1-449, sodium (S)-3-(3-(1,5-dimethyl-4-oxido-2-oxo-1,2-dihydropyridin-3-yl)ureido)-3-(6-methoxybiphenyl-3-yl)propanoate] it is less than 200 nM.
Under `COc1ccc(-c2cccc([C@H](CC(=O)O)NC(=O)Nc3c(O)c(C)cn(C)c3=O)c2)cc1` [1-645, sodium (S)-3-(3-(1,5-dimethyl-4-oxido-2-oxo-1,2-dihydropyridin-3-yl)ureido)-3-(4′-methoxybiphenyl-3-yl)propanoate] stands less than 200 nM.

The values are drawn from US10875875B2, “Propionic acid derivatives and methods of use thereof” (Aviara Pharmaceuticals, Inc., priority 2017, dated 2020).
